The source of these data is patent publication US20240002127A1 (priority 2020, published 2024).

For data set [1], the target named is human ACE2 peptidase domain (amino acids 1-615 of human ACE2 with C-terminal His-10 and Avi tags) (human) (UniProt Q9BYF1).
The format of data set [2] is in vitro ADME, mice, rats, monkeys, humans. The note with it: mouse, rat, monkey, human. How it is done:
In vitro metabolism of ALC-0315 and ALC-0159 was evaluated in blood, liver microsomes, S9 fractions, and hepatocytes from mice, rats, monkeys, and humans. In vivo metabolism was examined in rat plasma, urine, faeces, and liver samples from the PK study. […] ALC-0315 and ALC-0159 are apparently metabolised by hydrolytic metabolism of the ester and amide functionalities, respectively, and this hydrolytic metabolism is observed across the species evaluated.

Data set [3] is classed as in vivo, rats. The note with it: rat. How it is done:
A single dose PK study of ALC-0315 and […] following intravenous (IV) bolus injection of a nanoparticle formulation in rats was conducted to assess the PK and metabolism of lipid excipients ALC-0315 and ALC-0159.

Sequence of UniProt Q9BYF1 (Q9BYF1 18-615 limits assumed): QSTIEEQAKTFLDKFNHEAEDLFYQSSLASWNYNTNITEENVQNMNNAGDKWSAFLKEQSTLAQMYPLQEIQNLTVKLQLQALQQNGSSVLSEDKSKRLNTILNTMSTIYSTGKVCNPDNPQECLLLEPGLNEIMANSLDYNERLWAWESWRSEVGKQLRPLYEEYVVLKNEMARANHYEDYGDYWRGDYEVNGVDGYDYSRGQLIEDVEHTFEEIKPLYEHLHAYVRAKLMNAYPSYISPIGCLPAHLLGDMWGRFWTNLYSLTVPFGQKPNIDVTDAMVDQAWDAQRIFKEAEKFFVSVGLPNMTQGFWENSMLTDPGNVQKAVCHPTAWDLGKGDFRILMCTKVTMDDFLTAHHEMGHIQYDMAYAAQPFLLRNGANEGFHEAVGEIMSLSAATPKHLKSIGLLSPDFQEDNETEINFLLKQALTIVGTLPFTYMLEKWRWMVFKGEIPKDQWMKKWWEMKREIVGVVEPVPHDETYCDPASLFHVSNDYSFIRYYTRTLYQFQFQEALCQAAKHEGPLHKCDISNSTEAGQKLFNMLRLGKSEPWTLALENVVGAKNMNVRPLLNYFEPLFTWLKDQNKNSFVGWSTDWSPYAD

In data set [1], “RBD-foldon trimer (trimerised SARS-CoV-2 spike receptor-binding domain fused to T4 fibritin foldon, (other; other documents disagree on this pair)” showed a Kd of 5 pM and a fold difference of KD against the reported KD of monomeric RBD of 1000 fold.
`CCCCCCCCC(CCCCCC)C(=O)OCCCCCCN(CCCCO)CCCCCCOC(=O)C(CCCCCC)CCCCCCCC` (stereo not shown) [ALC-0315, ((4-hydroxybutyl)azanediyl)bis(hexane-6,1-diyl)bis(2-hexyldecanoate)]: the “metabolism in vitro and in vivo” value in data set [2] was “relatively slowly”. The “eliminated unchanged in faeces” value in data set [3] is listed as “little to no unchanged material”. Moreover, in data set [3] (IV), the “apparent terminal t½ in plasma and liver” value is 140 to 190 h. For the same molecule, in data set [3] (IV, over 2 weeks), the “drop of concentration in liver” value is approximately 4 fold and the “drop of concentration in plasma” value is “approximately 7000 fold”.
